Reference: ChEMBL document CHEMBL1201862, “PubChem BioAssay data set” (2004)
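Method: 48-hour compound exposure of cells in 96-well plates, five concentrations, linear interpolation of endpoints. GI50 is the concentration that inhibits growth by half.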 Calls of active or inactive are those of the source. Cut-off read from the data, not from the text of the source: active = GI50 up to about 1.1 µM and inactive = higher.

How the values were obtained:
Experiment in all cases: growth of human tumour cells (NCI), 48 h
OVCAR-5 = test system: OVCAR-5
UACC-62 = test system: UACC-62
NCI-H522 = test system: NCI-H522
SNB-75 = test system: SNB-75
LOX IMVI = test system: LOX IMVI
MCF7 = test system: MCF7
M14 = test system: M14
HCC 2998 = test system: HCC 2998
A549 = test system: A549
RPMI-8226 = test system: RPMI-8226
RXF 393 = test system: RXF 393
HOP-92 = test system: HOP-92
NCI-H460 = test system: NCI-H460
T47D = test system: T47D
UO-31 = test system: UO-31
786-0 = test system: 786-0
OVCAR-4 = test system: OVCAR-4
Hs-578T = test system: Hs-578T
SR = test system: SR
SF-295 = test system: SF-295
NCI-H226 = test system: NCI-H226
SNB-19 = test system: SNB-19
DU-145 = test system: DU-145
OVCAR-8 = test system: OVCAR-8
BT-549 = test system: BT-549
Malme-3M = test system: Malme-3M
SN12C = test system: SN12C
PC-3 = test system: PC-3
SF-268 = test system: SF-268
TK-10 = test system: TK-10
SF-539 = test system: SF-539
SK-OV-3 = test system: SK-OV-3
A498 = test system: A498
EKVX = test system: EKVX
SK-MEL-2 = test system: SK-MEL-2
NCI-H23 = test system: NCI-H23
KM12 = test system: KM12
CCRF-CEM = test system: CCRF-CEM
NCI/ADR-RES = test system: NCI/ADR-RES
HOP-62 = test system: HOP-62
HL-60 = test system: HL-60
U-251 = test system: U-251
CAKI-1 = test system: CAKI-1
HCT-116 = test system: HCT-116
ACHN = test system: ACHN
MOLT-4 = test system: MOLT-4
MDA-MB-435 = test system: MDA-MB-435
HT-29 = test system: HT-29
HCT-15 = test system: HCT-15
SK-MEL-5 = test system: SK-MEL-5
K562 = test system: K562
SK-MEL-28 = test system: SK-MEL-28
SW-620 = test system: SW-620
IGROV-1 = test system: IGROV-1
OVCAR-3 = test system: OVCAR-3
UACC-257 = test system: UACC-257
MDA-N = test system: MDA-N
COLO 205 = test system: COLO 205
MDA-MB-231 = test system: MDA-MB-231

For OC(CC(c1ccccc1)c1ccc(Cl)cc1)c1ccc(Cl)cc1 (stereo not given), the GI50 (OVCAR-5) was 24.3 µM (inactive), the GI50 (UACC-62) was 30.3 µM (inactive) and the GI50 (NCI-H522) was 25.1 µM (inactive). The GI50 (SNB-75) was 29.4 µM (inactive), the GI50 (LOX IMVI) was 27.9 µM (inactive) and the GI50 (MCF7) was 28.4 µM (inactive). The GI50 (M14) was 37.3 µM (inactive), the GI50 (HCC 2998) was 45.5 µM (inactive) and the GI50 (A549) was 37.8 µM (inactive). The GI50 (RPMI-8226) was 26.9 µM (inactive), the GI50 (RXF 393) was 24.8 µM (inactive) and the GI50 (HOP-92) was 26.4 µM (inactive). The GI50 (NCI-H460) was 30.1 µM (inactive), the GI50 (T47D) was 32.6 µM (inactive) and the GI50 (UO-31) was 33.3 µM (inactive). For the same molecule, the GI50 (786-0) was 34.1 µM (inactive), the GI50 (OVCAR-4) was 31.3 µM (inactive) and the GI50 (Hs-578T) was 48.1 µM (inactive). The GI50 (SR) was 27.3 µM (inactive), the GI50 (SF-295) was 34 µM (inactive) and the GI50 (NCI-H226) was 31.6 µM (inactive). For the same molecule, the GI50 (SNB-19) was 45.2 µM (inactive), the GI50 (DU-145) was 44.9 µM (inactive) and the GI50 (OVCAR-8) was 36.8 µM (inactive). The GI50 (BT-549) was 56.6 µM (inactive), the GI50 (Malme-3M) was 25.5 µM (inactive) and the GI50 (SN12C) was 25.2 µM (inactive). The GI50 (PC-3) was 34.9 µM (inactive), the GI50 (SF-268) was 37.1 µM (inactive) and the GI50 (TK-10) was 38 µM (inactive). The GI50 (SF-539) was 21.4 µM (inactive), the GI50 (SK-OV-3) was 36.1 µM (inactive) and the GI50 (A498) was 25.8 µM (inactive). For the same molecule, the GI50 (EKVX) was 30.5 µM (inactive), the GI50 (SK-MEL-2) was 24 µM (inactive) and the GI50 (NCI-H23) was 29.7 µM (inactive). For the same molecule, the GI50 (KM12) was 30.8 µM (inactive), the GI50 (CCRF-CEM) was 36.8 µM (inactive) and the GI50 (NCI/ADR-RES) was 33.5 µM (inactive). The GI50 (HOP-62) was 36.4 µM (inactive), the GI50 (HL-60) was 24.9 µM (inactive) and the GI50 (U-251) was 39.7 µM (inactive). For the same molecule, the GI50 (CAKI-1) was 27.8 µM (inactive), the GI50 (HCT-116) was 31.3 µM (inactive) and the GI50 (ACHN) was 27.1 µM (inactive). For the same molecule, the GI50 (MOLT-4) was 34.2 µM (inactive), the GI50 (MDA-MB-435) was 27.4 µM (inactive) and the GI50 (HT-29) was 35.6 µM (inactive). The GI50 (HCT-15) was 33.4 µM, the GI50 (SK-MEL-5) was 32 µM (inactive) and the GI50 (K562) was 32.4 µM (inactive). For the same molecule, the GI50 (SK-MEL-28) was 51.6 µM (inactive), the GI50 (SW-620) was 40.7 µM (inactive) and the GI50 (IGROV-1) was 35.8 µM (inactive). The GI50 (OVCAR-3) was 33.6 µM (inactive), the GI50 (UACC-257) was 29.4 µM (inactive) and the GI50 (MDA-N) was 29 µM (inactive). For the same molecule, the GI50 (COLO 205) was 18.5 µM (inactive).
For O=P(O)(O)CN1CCNCCN(CP(=O)(O)O)CCNCC1, the GI50 (OVCAR-5) was 10 µM (inactive), the GI50 (UACC-62) was 7.74 µM (inactive) and the GI50 (NCI-H522) was 9.38 µM (inactive). For the same molecule, the GI50 (SNB-75) was > 51.6 µM (inactive), the GI50 (LOX IMVI) was 15.7 µM (inactive) and the GI50 (MCF7) was 6.97 µM (inactive). The GI50 (M14) was 26.1 µM (inactive), the GI50 (HCC 2998) was 7.64 µM (inactive) and the GI50 (A549) was 8.22 µM (inactive). The GI50 (RPMI-8226) was 5.97 µM (inactive), the GI50 (RXF 393) was > 100 µM (inactive) and the GI50 (HOP-92) was 3.78 µM (inactive). For the same molecule, the GI50 (NCI-H460) was 3.24 µM (inactive), the GI50 (UO-31) was > 100 µM (inactive) and the GI50 (786-0) was > 30.8 µM (inactive). The GI50 (OVCAR-4) was > 71.3 µM (inactive), the GI50 (Hs-578T) was > 100 µM (inactive) and the GI50 (SR) was 1.79 µM (inactive). The GI50 (SF-295) was > 100 µM (inactive), the GI50 (SNB-19) was > 100 µM (inactive) and the GI50 (DU-145) was > 100 µM (inactive). For the same molecule, the GI50 (OVCAR-8) was 6.68 µM (inactive), the GI50 (BT-549) was > 100 µM (inactive) and the GI50 (Malme-3M) was 20.9 µM (inactive). For the same molecule, the GI50 (SN12C) was > 100 µM (inactive), the GI50 (PC-3) was 24.9 µM (inactive) and the GI50 (MDA-MB-231) was > 100 µM (inactive). For the same molecule, the GI50 (SF-268) was > 100 µM (inactive), the GI50 (TK-10) was > 62.2 µM (inactive) and the GI50 (SF-539) was 11.7 µM (inactive). The GI50 (SK-OV-3) was 8.87 µM (inactive), the GI50 (A498) was 8.36 µM (inactive) and the GI50 (EKVX) was > 95.9 µM (inactive). The GI50 (SK-MEL-2) was > 100 µM (inactive), the GI50 (NCI-H23) was 10.1 µM (inactive) and the GI50 (KM12) was 6.84 µM (inactive). The GI50 (CCRF-CEM) was 3.52 µM (inactive), the GI50 (NCI/ADR-RES) was 35.2 µM (inactive) and the GI50 (HOP-62) was > 100 µM (inactive). The GI50 (HL-60) was 2.79 µM (inactive), the GI50 (U-251) was > 24.4 µM (inactive) and the GI50 (CAKI-1) was > 47.8 µM (inactive). The GI50 (HCT-116) was 4.39 µM (inactive), the GI50 (ACHN) was > 100 µM (inactive) and the GI50 (MOLT-4) was 4.66 µM (inactive). For the same molecule, the GI50 (MDA-MB-435) was 12 µM (inactive), the GI50 (HT-29) was 3.95 µM (inactive) and the GI50 (HCT-15) was 4.2 µM. For the same molecule, the GI50 (SK-MEL-5) was 4.76 µM (inactive), the GI50 (K562) was 3.44 µM (inactive) and the GI50 (SK-MEL-28) was > 100 µM (inactive). For the same molecule, the GI50 (SW-620) was 4.74 µM (inactive), the GI50 (IGROV-1) was 6.52 µM (inactive) and the GI50 (OVCAR-3) was > 100 µM (inactive). The GI50 (UACC-257) was 41.8 µM (inactive), the GI50 (MDA-N) was 13.5 µM (inactive) and the GI50 (COLO 205) was 5.13 µM (inactive).
